Laboratory results from patent US11414431B2, “Substituted pyrazolo[1,5-a]pyrimidines as TYK2 inhibitors” (Nimbus Lakshmi, Inc., priority 2018, dated 2022).

tested on: IL-12 induced STAT4 phosphorlyation mediated by TYK2/JAK2; assay: IL-12 Induced pSTAT4 in Human PBMC; type: cell-based; conditions: 1.7 ng/mL IL-12 for 30 minutes
Procedure, shortened: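 Thawed human PBMC pre-incubated with compound 1 hr at 37° C (0.1% DMSO final), then stimulated 30 minutes with IL-12 at 1.7 ng/mL final. pSTAT4 and total STAT4 measured in cell lysates with MSD reagents.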

| SMILES | IC50 [µM] |
| --- | --- |
| CNc1cc(-c2cn(C(C)C)c3nnccc23)nc2c(C(=O)N[C@H]3CC[C@H]3O)cnn12 [Compound I-1000] | 0.5 to 1 |
| CNc1cc(-c2cn([C@H]3COC[C@@H]3O)c3ncccc23)nc2c(C(=O)NC3CC[C@@H]3OC)cnn12 (some centres unmarked) [Compound I-630] | 0.1 to 0.5 |
| CNc1cc(-c2cnc3n(CC(=O)N4CCC4)cccc2-3)nc2c(C(=O)N[C@H]3CC[C@@H]3OC)cnn12 [Compound I-977] | > 1 |
| CNc1cc(-c2cn([C@@H]3CCOC[C@H]3F)c3ncccc23)nc2c(C(=O)NC3CC[C@@H]3OC)cnn12 (some centres unmarked) [Compound I-652] | < 0.1 |
| CNc1cc(Nc2cccn(-c3ccc(C)nc3)c2=O)nc2c(C(=O)N[C@H]3CCC3(F)F)cnn12 [Compound I-325] | < 0.1 |
| CNc1cc(Nc2cccn([C@H]3C[C@H](OC)C3)c2=O)nc2c(C(=O)N[C@@H]3CC[C@H]3F)cnn12 [Compound I-178] | < 0.1 |
| CNc1cc(-c2cnc3n([C@H]4COC[C@@H]4OC)cccc2-3)nc2c(C(=O)NC3CC[C@@H]3OC)cnn12 (some centres unmarked) [Compound I-880] | < 0.1 |
| CNc1cc(-c2cn([C@@H]3CN(C)C[C@H]3F)c3ncccc23)nc2c(C(=O)N[C@H]3CC[C@@H]3OC)cnn12 [Compound I-643] | < 0.1 |
| CNc1cc(-c2cn([C@@H]3CN(C)C[C@H]3F)c3ncccc23)nc2c(C(=O)NC3CC[C@@H]3OC)cnn12 (some centres unmarked) [Compound I-642] | < 0.1 |
| CNc1cc(-c2cnc3n([C@H]4COC[C@@H]4OC)cccc2-3)nc2c(C(=O)N[C@@H]3CC[C@@H]3F)cnn12 [Compound I-840] | < 0.1 |
| CNc1cc(Nc2cccn([C@@H]3CCOC[C@@H]3OC)c2=O)nc2c(C(=O)N[C@@H]3CC[C@H]3F)cnn12 [Compound I-217] | < 0.1 |
| CO[C@H]1CCC1NC(=O)c1cnn2c(N)cc(-c3cnc4n([C@H]5COC[C@@H]5OC)cccc3-4)nc12 (some centres unmarked) [Compound I-999] | 0.1 to 0.5 |
| CNc1cc(-c2cn([C@@H]3COC[C@H]3O)c3ncccc23)nc2c(C(=O)N[C@@H]3CC[C@H]3OC)cnn12 [Compound I-629] | < 0.1 |

Further lines, results first:

| IC50 [µM] | SMILES |
| --- | --- |
| < 0.1 | CNc1cc(Nc2cccn(C(C)C)c2=O)nc2c(C(=O)NC3CC[C@@H]3F)cnn12 (mixture of isomers) [Compound I-145] |
| < 0.1 | CNc1cc(Nc2cccn(-c3ccccn3)c2=O)nc2c(C(=O)NC3CC[C@@H]3F)cnn12 (some centres unmarked) [Compound I-200] |
| < 0.1 | CNc1cc(Nc2cccn(C(C)C)c2=O)nc2c(C(=O)N[C@@H]3CC[C@H]3F)cnn12 [Compound I-147] |
| < 0.1 | CNc1cc(Nc2cccn(-c3ccc(C)nc3)c2=O)nc2c(C(=O)NC3CCC3(F)F)cnn12 (centres unmarked) [Compound I-324] |
| < 0.1 | CNc1cc(Nc2cccn([C@H]3C[C@H](OC)C3)c2=O)nc2c(C(=O)NC3CCC3(F)F)cnn12 (some centres unmarked) [Compound I-292] |
| < 0.1 | CNc1cc(-c2cn(C(C)C)c3nnccc23)nc2c(C(=O)NC3CC[C@@H]3OC)cnn12 (some centres unmarked) [Compound I-993] |
| < 0.1 | CNc1cc(Nc2cccn(-c3ncccc3F)c2=O)nc2c(C(=O)NC3CC[C@@]3(C)OC)cnn12 (some centres unmarked) [Compound I-414] |
| < 0.1 | CNc1cc(Nc2cccn([C@H]3C[C@H](F)C3)c2=O)nc2c(C(=O)N[C@H]3CC[C@@H]3F)cnn12 [Compound I-165] |
| < 0.1 | CNc1cc(-c2cn([C@H]3CCC4(C3)OCCO4)c3ncccc23)nc2c(C(=O)N[C@H]3CC[C@@H]3OC)cnn12 [Compound I-808] |
| < 0.1 | CNc1cc(Nc2cccn([C@@H]3CCC[C@@H]3O)c2=O)nc2c(C(=O)NC3CC[C@@H]3F)cnn12 (some centres unmarked) [Compound I-179] |
| < 0.1 | CNc1cc(Nc2cccn(C3CCN(CCF)CC3)c2=O)nc2c(C(=O)N[C@H]3CC[C@@H]3F)cnn12 [Compound I-237] |
| < 0.1 | CNc1cc(-c2cn([C@@H]3COC[C@H]3O)c3ncccc23)nc2c(C(=O)NC3CCC3(F)F)cnn12 (some centres unmarked) [Compound I-692] |
| < 0.1 | CNc1cc(-c2cn([C@@H]3COC[C@H]3OC)c3ncccc23)nc2c(C(=O)NC3CC[C@H]3F)cnn12 (some centres unmarked) [Compound I-531] |
| < 0.1 | CNc1cc(-c2cn(C3CN(C)C3)c3ncccc23)nc2c(C(=O)N[C@H]3CC[C@@H]3F)cnn12 [Compound I-514] |
| < 0.1 | CNc1cc(Nc2cccn([C@H]3[C@@H]4COC[C@@H]43)c2=O)nc2c(C(=O)NC3CCC3(F)F)cnn12 (some centres unmarked) [Compound I-306] |
| < 0.1 | CNc1cc(Nc2cccn([C@@H]3CCCOC3)c2=O)nc2c(C(=O)N[C@@H]3CC[C@H]3F)cnn12 [Compound I-196] |
| < 0.1 | CNc1cc(-c2cnc3n([C@H]4COC[C@@H]4O)cccc2-3)nc2c(C(=O)N[C@H]3CC[C@@H]3F)cnn12 [Compound I-828] |
| < 0.1 | CNc1cc(-c2cn(C(C)C)c3nnccc23)nc2c(C(=O)N[C@@H]3CC[C@H]3OC)cnn12 [Compound I-1009] |
| < 0.1 | CNc1cc(-c2cnc3n(CC(C)(C)O)cccc2-3)nc2c(C(=O)N[C@H]3CC[C@@H]3OC)cnn12 [Compound I-983] |
| < 0.1 | CNc1cc(-c2cn([C@@H]3CCOC3)c3ncccc23)nc2c(C(=O)NC3CC[C@@H]3OC)cnn12 (some centres unmarked) [Compound I-609] |

same assay, conditions: 0.5 h, 1.7 ng/mL IL-12 for 30 minutes

| IC50 [µM] | SMILES |
| --- | --- |
| < 0.1 | [2H]C([2H])([2H])O[C@H]1CCC1NC(=O)c1cnn2c(NC)cc(Nc3cccn([C@H]4[C@@H]5COC[C@@H]54)c3=O)nc12 (stereo partly drawn) [Compound I-102, 5-((1-((1R,5S,6r)-3-Oxabicyclo[3.1.0]hexan-6-yl)-2-oxo-1,2-dihydropyridin-3-yl)amino)-N-((trans-1,2)-2-(methoxy-d3)cyclobutyl)-7-(methylamino)pyrazolo[1,5-a]pyrimidine-3-carboxamide] |
| < 0.1 | CNc1cc(-c2cn([C@H]3COC[C@H]3F)c3ncccc23)nc2c(C(=O)NC3CC[C@@H]3OC)cnn12 (stereo partly drawn) [Compound I-624, 5-(1-((3S,4S)-4-Fluorotetrahydrofuran-3-yl)-1H-pyrrolo[2,3-b]pyridin-3-yl)-N-((trans-1,2)-2-methoxycyclobutyl)-7-(methylamino)pyrazolo[1,5-a]pyrimidine-3-carboxamide] |
| 0.1 to 0.5 | CNc1cc(-c2cnc3n([C@@H]4CCOC[C@@H]4F)cccc2-3)nc2c(C(=O)NC3CC[C@H]3O)cnn12 (stereo partly drawn) [Compound I-939, 5-(7-((3R,4R)-3-fluorotetrahydro-2H-pyran-4-yl)-7H-pyrrolo[2,3-b]pyridin-3-yl)-N-((cis-1,2)-2-hydroxycyclobutyl)-7-(methylamino)pyrazolo[1,5-a]pyrimidine-3-carboxamide] |
| < 0.1 | CNc1cc(Nc2cccn(-c3ccc(C)nc3)c2=O)nc2c(C(=O)N[C@@H]3C[C@H]3OC)cnn12 [Compound I-34, N-((1R,2R)-2-Methoxycyclopropyl)-5-((6′-methyl-2-oxo-2H-[1,3′-bipyridin]-3-yl)amino)-7-(methylamino)pyrazolo[1,5-a]pyrimidine-3-carboxamide] |

molecular target: human TYK2 (JH2domain-pseudokinase) (Homo sapiens (Human), UniProt P29597); assay: TYK2 JH2 Domain Binding Assay (KINOMEscan); conditions: 11-point 3-fold dilution, top concentration 30,000 nM, duplicate; read-out: hTYK2_JH2_Binding (Kd; nM)
Sequence (P29597 556-888): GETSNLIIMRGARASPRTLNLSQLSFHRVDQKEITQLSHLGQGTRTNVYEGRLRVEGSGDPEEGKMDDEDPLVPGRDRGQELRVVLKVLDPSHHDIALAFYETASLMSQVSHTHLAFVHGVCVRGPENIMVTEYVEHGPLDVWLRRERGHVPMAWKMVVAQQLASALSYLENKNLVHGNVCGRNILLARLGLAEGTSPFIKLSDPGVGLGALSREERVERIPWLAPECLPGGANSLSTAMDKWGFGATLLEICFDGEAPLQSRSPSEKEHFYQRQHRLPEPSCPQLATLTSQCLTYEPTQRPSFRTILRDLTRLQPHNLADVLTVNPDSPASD
Protocol: Binding constants for compounds of the present invention against the JH2 domain were determined by the following protocol for a KINOMEscan® assay (DiscoveRx). A fusion protein of a partial length construct of human TYK2 (JH2domain-pseudokinase) (amino acids G556 to D888 based on reference sequence NP_003322.3) and the DNA binding domain of NFkB was expressed in transiently transfected HEK293 cells. From these HEK 293 cells, extracts were prepared in M-PER extraction buffer (Pierce) in the presence of Protease Inhibitor Cocktail Complete (Roche) and Phosphatase Inhibitor Cocktail Set II (Merck) per manufacturers' instructions. The TYK2(JH2domain-pseudokinase) fusion protein was labeled with a chimeric double-stranded DNA tag containing the NFkB binding site (5′-[…]-3′) fused to an amplicon for qPCR readout, which was added directly to the expression extract (the final concentration of DNA-tag in the binding reaction is 0.1 nM).
The liganded beads were blocked with excess biotin and washed with blocking buffer (SeaBlock (Pierce), 1% BSA, 0.05% Tween 20, 1 mM DTT) to remove unbound ligand and to reduce nonspecific binding.
Extracts were loaded with DNA-tag and diluted into the binding reaction in a two step process. First extracts were diluted 1:100 in 1× binding buffer (PBS/0.05% Tween 20/10 mM DTT/0.1% BSA/2 μg/ml sonicated salmon sperm DNA) containing 10 nM DNA-tag. This dilution was allowed to equilibrate at room temperature for 15 minutes and then subsequently diluted 1:100 in 1× binding buffer. […] Kds were determined using an 11-point 3-fold compound dilution series with three DMSO control points. […] The compounds were then diluted directly into the assays such that the final concentration of DMSO was 0.9%. All reactions performed in polypropylene 384-well plates. Each was a final volume of 0.02 mL. Assays were incubated with shaking for 1 hour at room temperature. Then the beads were pelleted and washed with wash buffer (lx PBS, 0.05% Tween 20) to remove displaced kinase and test compound. […] The qPCR protocol consisted of a 10 minute hot start at 95° C., followed by 35 cycles of 95° C. for 15 seconds, 60° C. for 1 minute.
Kds were determined using an 11-point 3-fold compound dilution series with three DMSO control points. […] The compounds were then diluted directly into the assays such that the final concentration of DMSO was 0.9%. The Kds were determined using a compound top concentration of 30,000 nM. Kd measurements were performed in duplicate.
Binding constants (Kds) were calculated with a standard dose-response curve using the Hill equation: […]
The Hill Slope was set to −1.

| Kd [nM] | SMILES |
| --- | --- |
| > 10 | CNc1cc(Nc2cccn(-c3coc(C)n3)c2=O)nc2c(C(=O)N[C@@H]3C[C@@H]3F)cnn12 [Compound I-126] |
| 1 to 10 | CNc1cc(Nc2cccn([C@H]3CC[C@@H]3O)c2=O)nc2c(C(=O)N[C@@H]3CCC[C@@H](OC)C3)cnn12 [Compound I-96, 5-((1-((1S,2S)-2-Hydroxycyclobutyl)-2-oxo-1,2-dihydropyridin-3-yl)amino)-N-((1R,3R)-3-methoxycyclohexyl)-7-(methylamino)pyrazolo[1,5-a]pyrimidine-3-carboxamide] |
| < 0.2 | CNc1cc(Nc2cccn(-c3ocnc3C)c2=O)nc2c(C(=O)N[C@@H]3CC[C@H]3F)cnn12 [Compound I-187] |
| > 10 | CNc1cc(Nc2cccn([C@H]3CCC[C@H]3O)c2=O)nc2c(C(=O)N[C@H]3CC[C@H](OC)C3)cnn12 [Compound I-88, 5-((1-((1S,2R)-2-Hydroxycyclopentyl)-2-oxo-1,2-dihydropyridin-3-yl)amino)-N-((1S,3S)-3-methoxycyclopentyl)-7-(methylamino)pyrazolo[1,5-a]pyrimidine-3-carboxamide] |
